We go through 7 molecules from ChEMBL document CHEMBL2016510 (J Med Chem, 2012).

Molecules are shown by their SMILES.

The test system of series [1] is HepG2. Kind of series: Cytotoxicity against human HepG2 cells assessed as cell viability after 2 hrs by MTT assay. In kind it is cell-based. Particulars: HepG2, 2 h.
The nature of series [2]: Negative inotropic activity in guinea pig left atria assessed as decrease of 1 Hz current-induced developed tension. It counts as functional, tissue-based. Conditions: Cavia porcellus, Cardiac atrium.
Series [3] in a line: Antiarrhythmic activity in guinea pig left atria assessed as increase of 1 Hz-induced alternating current arrhythmia at 10^-4 M after 60 mins relative to control. In kind it is functional. Particulars: Cavia porcellus, Cardiac atrium, 1 h.
The subject of series [4] is Aorta. Kind of series: Vasorelaxant activity in potassium depolarized guinea pig aortic strip assessed as inhibition of calcium-induced contraction at 10^-4 M. In kind it is functional, Cavia porcellus. Further details: scale not given: the % may be the effect or the level left.
Series [5] in a line: Negative chronotropic activity in guinea pig spontaneously beating right atria assessed as decrease in atrial rate. In kind it is functional. Conditions: Cavia porcellus, Cardiac atrium.
The nature of series [6]: Antiarrhythmic activity in guinea pig left atria assessed as increase of 1 Hz-induced alternating current arrhythmia after 60 mins. It counts as functional, tissue-based. Particulars: Cavia porcellus, Cardiac atrium, 1 h.
Series [7] can be described thus: Negative chronotropic activity in guinea pig spontaneously beating right atria assessed as decrease in atrial rate at 5 x 10^-5 M relative to control. It counts as functional, Cavia porcellus, Cardiac atrium. Details: scale not given: the % may be the effect or the level left.
Series [8] is described as follows: Negative inotropic activity in guinea pig left atria assessed as decrease of 1 Hz current-induced developed tension at 5 x 10^-5 M relative to control. It counts as functional, Cavia porcellus, Cardiac atrium. Details: scale not given: the % may be the effect or the level left.
Series [9] in a line: Antiarrhythmic activity in guinea pig left atria assessed as increase of 1 Hz-induced alternating current arrhythmia at 5 x 10^-5 M after 60 mins relative to control. In kind it is functional. Conditions: Cavia porcellus, Cardiac atrium, 1 h.
The subject of series [10] is Mus musculus. Kind of series: Neurotoxicity in mouse assessed as deffect in motor coordination at 25 to 50 mg/kg, po after 15 to 45 mins by rotarod test. In kind it is toxicity, organism-based. Further details: route oral. Particulars: in vivo. A general note: Falling from the rotarod earlier than controls is read as motor impairment.
Series [11] has as its target T1, Sodium channel protein type 5 subunit alpha (Homo sapiens, UniProt Q14524). Kind of series: Blockade of human full-length NaV1.5 expressed in HEK293 cells co-transfected with pCD8-IRES-hbeta1 assessed as 0.1 Hz of half-maximal tonic-induced channel current at -120 mV holding potential after 36 to 72 hrs by patch clamp assay. In kind it is cell-based. (In patch-clamp work, channel activity is measured electrically.)

Series [12] relates to Caco-2. The series is described as follows: Apparent permeability from apical to basolateral side in human Caco2 cells after 21 days by UV spectroscopy. In kind it is ADME, cell-based.
Series [13] is described as follows: Negative chronotropic activity in guinea pig spontaneously beating right atria assessed as decrease in atrial rate at 10^-4 M relative to control. In kind it is functional, Cavia porcellus, Cardiac atrium. Details: scale not given: the % may be the effect or the level left.
Series [14] has as its target T1, Sodium channel protein type 5 subunit alpha. Kind of series: Blockade of human full-length NaV1.5 expressed in HEK293 cells co-transfected with pCD8-IRES-hbeta1 assessed as 10 Hz of use-dependent-induced channel current at -120 mV holding potential after 36 to 72 hrs by patch clamp assay. It counts as cell-based.
The test system of series [15] is Caco-2. Kind of series: Apparent permeability from basolateral to apical side in human Caco2 cells after 21 days by UV spectroscopy. In kind it is ADME, cell-based.
The test system of series [16] is Caco-2. The series is described as follows: Efflux ratio of permeability from basolateral to apical side to apical to basolateral side in human Caco2 cells after 21 days by UV spectroscopy. It counts as ADME, cell-based. For orientation: Caco-2 cells form a polarised layer with tight junctions and transporters.
The nature of series [17]: […] chronotropic activity in guinea pig spontaneously beating right atria assessed as decrease in atrial rate at 5 x 10^-6 M relative to control. Further details: scale not given: the % may be the effect or the level left. It counts as functional, Cavia porcellus, Cardiac atrium.
Series [18] is described as follows: Negative inotropic activity in guinea pig left atria assessed as decrease of 1 Hz current-induced developed tension at 10^-6 M relative to control. It counts as functional, Cavia porcellus, Cardiac atrium. Further details: scale not given: the % may be the effect or the level left.
Series [19] in a line: Negative inotropic activity in guinea pig left atria assessed as decrease of 1 Hz current-induced developed tension at 5 x 10^-7 M relative to control. Details: scale not given: the % may be the effect or the level left. It counts as functional, Cavia porcellus, Cardiac atrium.
The nature of series [20]: […] chronotropic activity in guinea pig spontaneously beating right atria assessed as decrease in atrial rate at 10^-4 M relative to control. Further details: scale not given: the % may be the effect or the level left. It counts as functional, Cavia porcellus, Cardiac atrium.
Series [21] in a line: Negative inotropic activity in guinea pig left atria assessed as decrease of 1 Hz current-induced developed tension at 10^-4 M relative to control. It counts as functional, Cavia porcellus, Cardiac atrium. Further details: scale not given: the % may be the effect or the level left.

T1 sequence (Q14524 whole entry): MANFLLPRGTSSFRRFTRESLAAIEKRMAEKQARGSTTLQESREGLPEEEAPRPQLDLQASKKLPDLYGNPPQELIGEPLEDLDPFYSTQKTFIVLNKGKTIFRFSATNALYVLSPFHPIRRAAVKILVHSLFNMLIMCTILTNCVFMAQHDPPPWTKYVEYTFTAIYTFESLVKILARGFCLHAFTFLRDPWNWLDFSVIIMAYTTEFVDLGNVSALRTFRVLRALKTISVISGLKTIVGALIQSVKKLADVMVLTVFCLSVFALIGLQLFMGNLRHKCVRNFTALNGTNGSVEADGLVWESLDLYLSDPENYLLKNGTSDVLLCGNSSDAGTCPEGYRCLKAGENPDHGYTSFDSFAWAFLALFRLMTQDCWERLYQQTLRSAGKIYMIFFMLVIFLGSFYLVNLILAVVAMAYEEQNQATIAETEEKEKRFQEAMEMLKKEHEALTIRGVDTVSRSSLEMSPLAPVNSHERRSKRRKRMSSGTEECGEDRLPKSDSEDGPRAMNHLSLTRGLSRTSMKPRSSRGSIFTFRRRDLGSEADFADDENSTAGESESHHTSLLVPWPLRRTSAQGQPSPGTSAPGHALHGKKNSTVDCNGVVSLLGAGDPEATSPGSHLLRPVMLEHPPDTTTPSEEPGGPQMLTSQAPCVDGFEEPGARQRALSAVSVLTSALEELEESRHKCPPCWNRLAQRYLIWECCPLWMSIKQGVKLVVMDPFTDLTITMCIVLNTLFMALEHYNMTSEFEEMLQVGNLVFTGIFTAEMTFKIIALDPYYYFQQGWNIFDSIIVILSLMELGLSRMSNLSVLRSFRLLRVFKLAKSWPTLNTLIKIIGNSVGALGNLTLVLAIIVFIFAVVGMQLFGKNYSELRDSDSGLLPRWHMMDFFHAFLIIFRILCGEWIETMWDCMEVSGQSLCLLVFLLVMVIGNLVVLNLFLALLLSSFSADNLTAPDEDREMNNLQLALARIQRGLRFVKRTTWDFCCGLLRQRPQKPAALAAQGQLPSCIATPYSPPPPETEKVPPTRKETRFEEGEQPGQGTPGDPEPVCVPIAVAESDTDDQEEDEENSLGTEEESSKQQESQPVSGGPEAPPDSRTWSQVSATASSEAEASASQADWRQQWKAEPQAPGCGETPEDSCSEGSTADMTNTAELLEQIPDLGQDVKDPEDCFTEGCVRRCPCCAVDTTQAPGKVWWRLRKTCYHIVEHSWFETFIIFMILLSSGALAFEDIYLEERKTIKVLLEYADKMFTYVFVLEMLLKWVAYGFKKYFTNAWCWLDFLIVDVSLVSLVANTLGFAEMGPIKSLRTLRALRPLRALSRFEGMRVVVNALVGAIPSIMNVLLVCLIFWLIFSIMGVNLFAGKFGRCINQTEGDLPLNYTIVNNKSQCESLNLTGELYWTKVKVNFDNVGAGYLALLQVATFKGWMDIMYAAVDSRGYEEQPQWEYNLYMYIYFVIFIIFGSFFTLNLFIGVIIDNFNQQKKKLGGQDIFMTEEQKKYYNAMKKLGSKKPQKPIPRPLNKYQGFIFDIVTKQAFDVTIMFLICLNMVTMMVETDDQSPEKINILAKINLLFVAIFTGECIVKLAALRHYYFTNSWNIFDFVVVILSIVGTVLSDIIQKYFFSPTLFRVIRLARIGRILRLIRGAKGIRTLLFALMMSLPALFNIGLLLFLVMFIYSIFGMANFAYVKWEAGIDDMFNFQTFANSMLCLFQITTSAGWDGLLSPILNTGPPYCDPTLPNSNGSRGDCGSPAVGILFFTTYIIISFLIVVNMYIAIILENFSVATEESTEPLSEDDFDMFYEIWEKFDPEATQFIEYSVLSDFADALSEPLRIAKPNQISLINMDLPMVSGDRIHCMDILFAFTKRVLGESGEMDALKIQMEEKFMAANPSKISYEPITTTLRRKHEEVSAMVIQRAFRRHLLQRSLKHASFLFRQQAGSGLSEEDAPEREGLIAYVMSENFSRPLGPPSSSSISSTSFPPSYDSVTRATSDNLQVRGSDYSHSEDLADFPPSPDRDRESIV

In general, EC50 refers to the concentration needed to bring the measured effect to its halfway point. By Emax is commonly meant the greatest response seen or fitted, relative to the assay's reference. The term EC30 denotes the concentration at which the effect reaches the 30% level. Consider `Cc1cccc(C)c1OCC(C)N` (racemic) [MEXILETINE], for which the figures for the EC50 in series [1], in series [2] and in series [6] were 2000 µM, 0.045 µM and 11.6 µM, respectively. The maximum response (Emax) at 100 µM in series [3] was 64%. Also, the Activity in series [4] turned out to be 5%. Further, the EC30 in series [5] came to 0.014 µM.
Turning to `C=C[C@H]1CN2CC[C@H]1C[C@@H]2[C@@H](O)c1ccnc2ccc(OC)cc12` [QUINIDINE], the Activity stood at 86% in series [7], 71% in series [8] and 30% in series [4]. In series [5], the EC30 amounted to 3.99 µM. In addition, the maximum response (Emax) at 50 µM in series [9] came out at 69%.
Broadly, the IC50 is the concentration that gives 50% inhibition. By Papp is commonly meant a coefficient for how fast a substance crosses the barrier. Turning to `Cc1ccc(O)c(C)c1OCC(C)N` (racemic), the values for the concentration giving a half-maximal response (EC50) in series [1], in series [2] and in [6] were over 2000 µM, 0.098 µM and 10.2 µM, respectively. The Activity in series [8] is 96%; in series [10] it was “Non-toxic”; in [13], 39%; in series [4], 19%. In addition, the IC50 in [11] was 174 µM; in [14], 30 µM. Further, the Papp came to 300.6 ×10⁻⁶ cm/s in series [12] and 142.5 ×10⁻⁶ cm/s in series [15]. For the same molecule, the maximal effect (Emax) at 100 µM in series [3] was determined as 72%. Besides, the Ratio in series [16] came to 2.1.
As to `CCN(CC)CC(=O)Nc1c(C)cccc1C` [LIDOCAINE], the EC50 in [2] worked out at 0.017 µM. Further, the Activity is 29% in series [17], 14% in [4] and 88% in series [18]. In [9], the Emax at 50 µM came to 34%.
In the case of `CCN(CC)CCOC(=O)c1ccc(N)cc1` [PROCAINE], the Activity in series [19] was 92%; in [4], 3%; in series [20], 9%. For the same molecule, the EC50 in [2] was found to be 0.014 µM.
Regarding `CCCCc1oc2ccccc2c1C(=O)c1cc(I)c(OCCN(CC)CC)c(I)c1` [AMIODARONE], the Activity in [13] turned out to be 72%; in series [4] it was 3%; in series [21], 30%. The maximal response (Emax) at 100 µM in series [3] is 10%.
For the molecule `CCN(CC)CCNC(=O)c1ccc(N)cc1` [PROCAINAMIDE], in series [9], the maximum response (Emax) at 50 µM was 11%.
